Measurements published in US20250213532A1, “5-METHOXY-N,N-[…][…] THE TREATMENT OF BIPOLAR DISORDER” (GH RESEARCH IRELAND LIMITED, priority 2022, published 2025).

Columns and labels:
[1] = tested on: patients with clinically diagnosed postpartum depression (PPD); test: Clinical trial in postpartum depression: safety and tolerability; assay type: in vivo, human; conditions: one PPD patient
Excerpt: (§1) The patient completed all planned visit days.

[2] = tested on: patients with clinically diagnosed postpartum depression (PPD); test: Clinical trial of inhaled 5-MeO-DMT in postpartum depression: BPRS; assay type: in vivo, human; conditions: one PPD patient; for BPRS Blunted affect improvement / BPRS Blunted affect score / BPRS Conceptual disorganization improvement / BPRS Conceptual disorganization score / BPRS Disorientation improvement / BPRS Disorientation score / BPRS Grandiosity improvement / BPRS Grandiosity score / BPRS Hallucinatory behaviour improvement / BPRS Hallucinatory behaviour score / BPRS Hostility improvement / BPRS Hostility score / BPRS Mannerisms and Posturing improvement / BPRS Mannerisms and Posturing score / BPRS Motor retardation improvement / BPRS Motor retardation score / BPRS Suspiciousness improvement / BPRS Suspiciousness score / BPRS Uncooperativeness improvement / BPRS Uncooperativeness score / BPRS Unusual Thought Content improvement / BPRS Unusual Thought Content score: baseline 1; for BPRS Excitement improvement / BPRS Excitement score: baseline 2; for BPRS Emotional withdrawal improvement / BPRS Emotional withdrawal score: baseline 5; for BPRS Anxiety improvement / BPRS Anxiety score: baseline 7
Excerpt: as §1

[3] = Acute psychedelic effects after inhalation; design: species or system human; conditions: in vivo
[4] = tested on: patients with clinically diagnosed postpartum depression (PPD); test: Clinical trial of inhaled 5-MeO-DMT in postpartum depression: MADRS; assay type: in vivo, human; conditions: one PPD patient; for MADRS Concentration Difficulties improvement / MADRS Concentration Difficulties score / MADRS Reduced appetite improvement / MADRS Reduced appetite score / MADRS Suicidal Thoughts improvement / MADRS Suicidal Thoughts score: baseline 0; for MADRS Inability to Feel improvement / MADRS Inability to Feel score / MADRS Lassitude improvement / MADRS Lassitude score: baseline 3; for MADRS Pessimistic Thoughts improvement / MADRS Pessimistic Thoughts score / MADRS Reported sadness improvement / MADRS Reported sadness score: baseline 4; for MADRS Apparent sadness improvement / MADRS Apparent sadness score / MADRS Inner Tension improvement / MADRS Inner Tension score / MADRS Reduced Sleep improvement / MADRS Reduced Sleep score: baseline 5
Excerpt: as §1

COc1ccc2[nH]cc(CCN(C)C)c2c1 [5-MeO-DMT]
Tolerability of inhalation procedure [1]: well tolerated with no inhalation-related adverse events
Adverse events (cramping left abdominal pain and headache) ([1]; Day 0): mild, short-lasting and resolved spontaneously
ECG, safety laboratory analyses, CADSS ([1]; ECG 3 hours, laboratory 7 days, CADSS 3 hours, 1 day, 7 days): unremarkable
BPRS Blunted affect improvement ([2]; Day 1): 0
BPRS Blunted affect score ([2]; Day 1): 1
BPRS Conceptual disorganization improvement ([2]; Day 1): 0
BPRS Conceptual disorganization score ([2]; Day 1): 1
BPRS Disorientation improvement ([2]; Day 1): 0
BPRS Disorientation score ([2]; Day 1): 1
BPRS Grandiosity improvement ([2]; Day 1): 0
BPRS Grandiosity score ([2]; Day 1): 1
BPRS Hallucinatory behaviour improvement ([2]; Day 1): 0
BPRS Hallucinatory behaviour score ([2]; Day 1): 1
BPRS Hostility improvement ([2]; Day 1): 0
BPRS Hostility score ([2]; Day 1): 1
BPRS Mannerisms and Posturing improvement ([2]; Day 1): 0
BPRS Mannerisms and Posturing score ([2]; Day 1): 1
BPRS Motor retardation improvement ([2]; Day 1): 0
BPRS Motor retardation score ([2]; Day 1): 1
BPRS Suspiciousness improvement ([2]; Day 1): 0
BPRS Suspiciousness score ([2]; Day 1): 1
BPRS Uncooperativeness improvement ([2]; Day 1): 0
BPRS Uncooperativeness score ([2]; Day 1): 1
BPRS Unusual Thought Content improvement ([2]; Day 1): 0
BPRS Unusual Thought Content score ([2]; Day 1): 1
BPRS Excitement improvement ([2]; Day 1): 1
BPRS Excitement score ([2]; Day 1): 1
BPRS Emotional withdrawal improvement ([2]; Day 1): 4
BPRS Emotional withdrawal score ([2]; Day 1): 1
BPRS Depressive Mood improvement ([2]; Day 1, baseline 6): 5
BPRS Depressive Mood score ([2]; Day 1, baseline 6): 1
BPRS Guilt feelings improvement ([2]; Day 1, baseline 6): 5
BPRS Guilt feelings score ([2]; Day 1, baseline 6): 1
BPRS Somatic Concern improvement ([2]; Day 1, baseline 6): 5
BPRS Somatic Concern score ([2]; Day 1, baseline 6): 1
BPRS Tension score ([2]; Day 1, baseline 6): 1
BPRS Anxiety improvement ([2]; Day 1): 6
BPRS Anxiety score ([2]; Day 1): 1
BPRS Blunted affect improvement ([2]; Day 7): 0
BPRS Blunted affect score ([2]; Day 7): 1
BPRS Conceptual disorganization improvement ([2]; Day 7): 0
BPRS Conceptual disorganization score ([2]; Day 7): 1
BPRS Disorientation improvement ([2]; Day 7): 0
BPRS Disorientation score ([2]; Day 7): 1
BPRS Grandiosity improvement ([2]; Day 7): 0
BPRS Grandiosity score ([2]; Day 7): 1
BPRS Hallucinatory behaviour improvement ([2]; Day 7): 0
BPRS Hallucinatory behaviour score ([2]; Day 7): 1
BPRS Hostility improvement ([2]; Day 7): 0
BPRS Hostility score ([2]; Day 7): 1
BPRS Mannerisms and Posturing improvement ([2]; Day 7): 0
BPRS Mannerisms and Posturing score ([2]; Day 7): 1
BPRS Motor retardation improvement ([2]; Day 7): 0
BPRS Motor retardation score ([2]; Day 7): 1
BPRS Suspiciousness improvement ([2]; Day 7): 0
BPRS Suspiciousness score ([2]; Day 7): 1
BPRS Uncooperativeness improvement ([2]; Day 7): 0
BPRS Uncooperativeness score ([2]; Day 7): 1
BPRS Unusual Thought Content improvement ([2]; Day 7): 0
BPRS Unusual Thought Content score ([2]; Day 7): 1
BPRS Excitement improvement ([2]; Day 7): 1
BPRS Excitement score ([2]; Day 7): 1
BPRS Emotional withdrawal improvement ([2]; Day 7): 4
BPRS Emotional withdrawal score ([2]; Day 7): 1
BPRS Depressive Mood improvement ([2]; Day 7, baseline 6): 5
BPRS Depressive Mood score ([2]; Day 7, baseline 6): 1
BPRS Guilt feelings improvement ([2]; Day 7, baseline 6): 5
BPRS Guilt feelings score ([2]; Day 7, baseline 6): 1
BPRS Somatic Concern improvement ([2]; Day 7, baseline 6): 5
BPRS Somatic Concern score ([2]; Day 7, baseline 6): 1
BPRS Tension improvement ([2]; Day 7, baseline 6): 5
BPRS Tension score ([2]; Day 7, baseline 6): 1
BPRS Anxiety improvement ([2]; Day 7): 6
BPRS Anxiety score ([2]; Day 7): 1
BPRS Blunted affect improvement ([2]; Discharge): 0
BPRS Blunted affect score ([2]; Discharge): 1
BPRS Conceptual disorganization improvement ([2]; Discharge): 0
BPRS Conceptual disorganization score ([2]; Discharge): 1
BPRS Disorientation improvement ([2]; Discharge): 0
BPRS Disorientation score ([2]; Discharge): 1
BPRS Grandiosity improvement ([2]; Discharge): 0
BPRS Grandiosity score ([2]; Discharge): 1
BPRS Hallucinatory behaviour improvement ([2]; Discharge): 0
BPRS Hallucinatory behaviour score ([2]; Discharge): 1
BPRS Hostility improvement ([2]; Discharge): 0
BPRS Hostility score ([2]; Discharge): 1
BPRS Mannerisms and Posturing improvement ([2]; Discharge): 0
BPRS Mannerisms and Posturing score ([2]; Discharge): 1
BPRS Motor retardation improvement ([2]; Discharge): 0
BPRS Motor retardation score ([2]; Discharge): 1
BPRS Suspiciousness improvement ([2]; Discharge): 0
BPRS Suspiciousness score ([2]; Discharge): 1
BPRS Uncooperativeness improvement ([2]; Discharge): 0
BPRS Uncooperativeness score ([2]; Discharge): 1
BPRS Unusual Thought Content improvement ([2]; Discharge): 0
BPRS Unusual Thought Content score ([2]; Discharge): 1
BPRS Excitement improvement ([2]; Discharge): 1
BPRS Excitement score ([2]; Discharge): 1
BPRS Emotional withdrawal improvement ([2]; Discharge): 4
BPRS Emotional withdrawal score ([2]; Discharge): 1
BPRS Depressive Mood improvement ([2]; Discharge, baseline 6): 5
BPRS Depressive Mood score ([2]; Discharge, baseline 6): 1
BPRS Guilt feelings improvement ([2]; Discharge, baseline 6): 5
BPRS Guilt feelings score ([2]; Discharge, baseline 6): 1
BPRS Somatic Concern improvement ([2]; Discharge, baseline 6): 5
BPRS Somatic Concern score ([2]; Discharge, baseline 6): 1
BPRS Tension score ([2]; Discharge, baseline 6): 1
BPRS Anxiety improvement ([2]; Discharge): 6
BPRS Anxiety score ([2]; Discharge): 1
Onset of effect [3]: merely seconds
MADRS remission (total score equal or less than 10) [4]: fulfilled standard criteria
MADRS response (at least 50% improvement from baseline) [4]: fulfilled standard criteria
MADRS Concentration Difficulties improvement ([4]; 2 hr): 0
MADRS Concentration Difficulties score ([4]; 2 hr): 0
MADRS Reduced appetite improvement ([4]; 2 hr): 0
MADRS Reduced appetite score ([4]; 2 hr): 0
MADRS Suicidal Thoughts improvement ([4]; 2 hr): 0
MADRS Suicidal Thoughts score ([4]; 2 hr): 0
MADRS Inability to Feel improvement ([4]; 2 hr): 3
MADRS Inability to Feel score ([4]; 2 hr): 0
MADRS Lassitude improvement ([4]; 2 hr): 3
MADRS Lassitude score ([4]; 2 hr): 0
MADRS Pessimistic Thoughts improvement ([4]; 2 hr): 4
MADRS Pessimistic Thoughts score ([4]; 2 hr): 0
MADRS Reported sadness improvement ([4]; 2 hr): 4
MADRS Reported sadness score ([4]; 2 hr): 0
MADRS Apparent sadness improvement ([4]; 2 hr): 5
MADRS Apparent sadness score ([4]; 2 hr): 0
MADRS Inner Tension improvement ([4]; 2 hr): 5
MADRS Inner Tension score ([4]; 2 hr): 0
MADRS Reduced Sleep improvement ([4]; 2 hr): 0
MADRS Reduced Sleep score ([4]; 2 hr): 5
MADRS Concentration Difficulties improvement ([4]; Day 1): 0
MADRS Concentration Difficulties score ([4]; Day 1): 0
MADRS Reduced appetite improvement ([4]; Day 1): 0
MADRS Reduced appetite score ([4]; Day 1): 0
MADRS Suicidal Thoughts improvement ([4]; Day 1): 0
MADRS Suicidal Thoughts score ([4]; Day 1): 0
MADRS Inability to Feel improvement ([4]; Day 1): 3
MADRS Inability to Feel score ([4]; Day 1): 0
MADRS Lassitude improvement ([4]; Day 1): 3
MADRS Pessimistic Thoughts improvement ([4]; Day 1): 4
MADRS Pessimistic Thoughts score ([4]; Day 1): 0
MADRS Reported sadness improvement ([4]; Day 1): 4
MADRS Reported sadness score ([4]; Day 1): 0
MADRS Apparent sadness improvement ([4]; Day 1): 5
MADRS Apparent sadness score ([4]; Day 1): 0
MADRS Inner Tension improvement ([4]; Day 1): 5
MADRS Inner Tension score ([4]; Day 1): 0
MADRS Reduced Sleep improvement ([4]; Day 1): 5
MADRS Reduced Sleep score ([4]; Day 1): 0
MADRS Concentration Difficulties improvement ([4]; Day 7): 0
MADRS Concentration Difficulties score ([4]; Day 7): 0
MADRS Reduced appetite improvement ([4]; Day 7): 0
MADRS Reduced appetite score ([4]; Day 7): 0
MADRS Suicidal Thoughts improvement ([4]; Day 7): 0
MADRS Suicidal Thoughts score ([4]; Day 7): 0
MADRS Inability to Feel improvement ([4]; Day 7): 3
MADRS Inability to Feel score ([4]; Day 7): 0
MADRS Lassitude improvement ([4]; Day 7): 3
MADRS Lassitude score ([4]; Day 7): 0
MADRS Pessimistic Thoughts improvement ([4]; Day 7): 4
MADRS Pessimistic Thoughts score ([4]; Day 7): 0
MADRS Reported sadness improvement ([4]; Day 7): 4
MADRS Reported sadness score ([4]; Day 7): 0
MADRS Apparent sadness improvement ([4]; Day 7): 5
MADRS Apparent sadness score ([4]; Day 7): 0
MADRS Inner Tension improvement ([4]; Day 7): 4
MADRS Inner Tension score ([4]; Day 7): 1
MADRS Reduced Sleep improvement ([4]; Day 7): 5
MADRS Reduced Sleep score ([4]; Day 7): 0
Durability of clinical response ([4]; IDR 6 mg then 12 mg): sustained over the 7-day follow-up period
Time to clinical response after administration ([4]; IDR 6 mg then 12 mg): ≤ 2 h
